Source: patent US20230416232A1, “PYRIMIDINE COMPOUNDS, COMPOSITIONS, AND MEDICINAL APPLICATIONS THEREOF” (Blueprint Medicines Corporation, priority 2020, published 2023)

Experiments:
Format in all cases: cell-based
[1] = biological target: EGFR (A767_dupASV) expressing Ba/F3 stable cell line (Homo sapiens, UniProt P00533, DUP767-769, cells depend on it); assay: Cellular proliferation (Alamar Blue) assay, EGFR (A767_dupASV) Ba/F3; conditions: 72 hr, read-out: A767 IC50
Method in brief: (§1)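 Compound treatment lasted 72 h at 37 °C across a final 10-0.0005 μM range in 3-fold steps; cell growth was measured with Alamar Blue (3 h). Ba/F3 seeded at 15,000 and A431 at 5000 cells/well.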

[2] = test system: A431 cells; assay: Cellular proliferation (Alamar Blue) assay, A431 cells; conditions: Homo sapiens, A-431, 72 h, A431 cells; 72 hr; Alamar Blue; read-out: A431 IC50
Method in brief: as §1

[3] = biological target: HER2 (A775_G776insYVMA) expressing Ba/F3 stable cell line (Homo sapiens, UniProt P04626, DUP772-775, cells depend on it); assay: Cellular proliferation (Alamar Blue) assay, HER2 (A775_G776insYVMA) Ba/F3; conditions: HER2 (A775_G776insYVMA) Ba/F3 cells; 72 hr; Alamar Blue; read-out: YVMA IC50
Method in brief: as §1

[4] = biological target: EGFR(D770_N771insSVD) expressing Ba/F3 stable cell line (Homo sapiens, UniProt P00533, DUP768-770, cells depend on it); assay: Cellular proliferation (Alamar Blue) assay, EGFR(D770_N771insSVD) Ba/F3; conditions: 72 hr, read-out: D770 IC50
Method in brief: as §1

[5] = biological target: EGFR (H773insNPH) expressing Ba/F3 stable cell line (Homo sapiens, UniProt P00533, DUP771-773, cells depend on it); assay: Cellular proliferation (Alamar Blue) assay, EGFR (H773insNPH) Ba/F3; conditions: 72 hr, read-out: NPH IC50
Procedure: Cell line details: • 1. EGFR(D770_N771insSVD) expressing Ba/F3 stable cell line • 2. EGFR (A767_dupASV) expressing Ba/F3 stable cell line • 3. A431 cells • 4. EGFR (H773insNPH) expressing Ba/F3 stable cell line • 5. HER2 (A775_G776insYVMA) expressing Ba/F3 stable cell line
• 1. Seed cells at 5000 for A431 and 15,000 cells for Ba/F3 in 100 μL/well in complete media (for A431: DMEM with 10% FBS and for Ba/F3 cells: RPMI with 10% FBS) in 96-well tissue culture plate. Leave outer wells without cells for background measurements. Incubate at 37 degree Celsius in 5% CO2 humidified incubator for 16-18 hours. • 2. Add 0.025 ml of 5X concentration compound dilution or DMSO control. Final compound concentration range is 10-0.0005 μM prepared in 3-fold serial dilutions. Incubate for 72 hr at 37 degree Celsius in 5% CO2 humidified incubator. • 3. Add 0.0125 ml Alamar Blue™ reagent to each well with multi-channel pipette and tap gently on each side of the plate to mix. Incubate for 3 hours at 37 degree Celsius in 5% CO2 humidified incubator. • 4. […] Data analysis was performed using XLfit 5.5.0.5.

EGFR (A767_dupASV) expressing Ba/F3 stable cell line, sequence (P00533 with tags, fused parts or gaps DUP767-769): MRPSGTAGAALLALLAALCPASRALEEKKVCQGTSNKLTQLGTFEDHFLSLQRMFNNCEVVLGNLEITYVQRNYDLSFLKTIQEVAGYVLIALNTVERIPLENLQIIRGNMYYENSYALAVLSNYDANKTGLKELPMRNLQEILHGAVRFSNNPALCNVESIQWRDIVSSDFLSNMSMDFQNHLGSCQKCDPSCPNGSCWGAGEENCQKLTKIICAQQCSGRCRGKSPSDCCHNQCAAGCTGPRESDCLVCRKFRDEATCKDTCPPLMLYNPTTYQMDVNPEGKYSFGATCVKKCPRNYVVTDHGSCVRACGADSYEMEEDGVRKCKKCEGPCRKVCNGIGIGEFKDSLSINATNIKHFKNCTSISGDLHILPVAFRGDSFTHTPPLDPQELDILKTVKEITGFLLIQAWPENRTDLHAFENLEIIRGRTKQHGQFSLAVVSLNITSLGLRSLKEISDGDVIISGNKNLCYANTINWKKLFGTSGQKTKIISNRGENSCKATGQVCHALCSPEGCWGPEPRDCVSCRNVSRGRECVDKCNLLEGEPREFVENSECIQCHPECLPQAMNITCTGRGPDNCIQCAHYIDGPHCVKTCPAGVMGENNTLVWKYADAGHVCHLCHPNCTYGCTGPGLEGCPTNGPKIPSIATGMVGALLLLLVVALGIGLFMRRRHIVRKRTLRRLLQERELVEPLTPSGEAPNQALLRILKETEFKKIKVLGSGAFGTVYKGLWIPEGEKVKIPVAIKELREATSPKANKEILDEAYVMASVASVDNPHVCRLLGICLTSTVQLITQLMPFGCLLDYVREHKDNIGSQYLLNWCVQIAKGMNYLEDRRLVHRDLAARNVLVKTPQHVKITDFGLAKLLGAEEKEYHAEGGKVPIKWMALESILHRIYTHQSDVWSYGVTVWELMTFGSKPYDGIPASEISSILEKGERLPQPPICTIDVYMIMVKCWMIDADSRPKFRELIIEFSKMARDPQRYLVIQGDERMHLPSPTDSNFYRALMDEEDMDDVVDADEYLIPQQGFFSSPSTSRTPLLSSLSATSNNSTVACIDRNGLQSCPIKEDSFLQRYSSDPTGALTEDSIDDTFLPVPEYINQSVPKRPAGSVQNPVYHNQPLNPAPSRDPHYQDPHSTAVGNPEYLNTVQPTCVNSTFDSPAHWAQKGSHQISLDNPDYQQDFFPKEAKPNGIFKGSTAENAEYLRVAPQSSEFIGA
HER2 (A775_G776insYVMA) expressing Ba/F3 stable cell line, sequence (P04626 with tags, fused parts or gaps DUP772-775): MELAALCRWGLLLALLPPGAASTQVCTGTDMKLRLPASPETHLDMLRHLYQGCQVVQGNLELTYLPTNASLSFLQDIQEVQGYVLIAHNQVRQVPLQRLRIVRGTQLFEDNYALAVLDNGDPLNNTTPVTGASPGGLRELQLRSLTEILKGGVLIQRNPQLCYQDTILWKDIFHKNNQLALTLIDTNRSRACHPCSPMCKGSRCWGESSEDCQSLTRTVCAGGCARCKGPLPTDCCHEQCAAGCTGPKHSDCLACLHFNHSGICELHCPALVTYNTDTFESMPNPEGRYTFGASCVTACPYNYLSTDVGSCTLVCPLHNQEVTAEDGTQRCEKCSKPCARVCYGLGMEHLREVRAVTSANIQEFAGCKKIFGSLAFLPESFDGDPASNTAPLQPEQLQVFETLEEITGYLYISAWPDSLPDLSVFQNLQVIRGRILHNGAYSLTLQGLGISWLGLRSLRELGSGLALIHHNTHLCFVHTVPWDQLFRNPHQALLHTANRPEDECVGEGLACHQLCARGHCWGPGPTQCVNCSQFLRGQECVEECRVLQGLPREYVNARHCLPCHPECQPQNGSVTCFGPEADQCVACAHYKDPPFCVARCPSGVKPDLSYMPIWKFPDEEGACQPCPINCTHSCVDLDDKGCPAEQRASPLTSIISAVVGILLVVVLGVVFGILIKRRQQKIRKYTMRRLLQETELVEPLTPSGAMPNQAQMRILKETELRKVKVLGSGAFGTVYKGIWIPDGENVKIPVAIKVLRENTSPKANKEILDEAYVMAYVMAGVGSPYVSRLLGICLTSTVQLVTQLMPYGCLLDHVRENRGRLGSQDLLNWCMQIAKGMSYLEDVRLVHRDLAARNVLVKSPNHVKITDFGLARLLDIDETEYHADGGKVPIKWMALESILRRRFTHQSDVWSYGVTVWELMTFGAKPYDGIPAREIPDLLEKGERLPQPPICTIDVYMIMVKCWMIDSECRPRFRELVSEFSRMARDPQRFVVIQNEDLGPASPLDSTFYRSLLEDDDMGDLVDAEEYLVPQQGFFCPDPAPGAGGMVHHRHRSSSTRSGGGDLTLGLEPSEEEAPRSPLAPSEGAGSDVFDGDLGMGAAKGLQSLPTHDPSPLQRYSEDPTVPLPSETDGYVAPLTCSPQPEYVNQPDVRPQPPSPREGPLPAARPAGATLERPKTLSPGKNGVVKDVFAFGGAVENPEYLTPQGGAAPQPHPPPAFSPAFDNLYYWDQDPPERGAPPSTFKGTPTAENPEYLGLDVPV
EGFR(D770_N771insSVD) expressing Ba/F3 stable cell line, sequence (P00533 with tags, fused parts or gaps DUP768-770): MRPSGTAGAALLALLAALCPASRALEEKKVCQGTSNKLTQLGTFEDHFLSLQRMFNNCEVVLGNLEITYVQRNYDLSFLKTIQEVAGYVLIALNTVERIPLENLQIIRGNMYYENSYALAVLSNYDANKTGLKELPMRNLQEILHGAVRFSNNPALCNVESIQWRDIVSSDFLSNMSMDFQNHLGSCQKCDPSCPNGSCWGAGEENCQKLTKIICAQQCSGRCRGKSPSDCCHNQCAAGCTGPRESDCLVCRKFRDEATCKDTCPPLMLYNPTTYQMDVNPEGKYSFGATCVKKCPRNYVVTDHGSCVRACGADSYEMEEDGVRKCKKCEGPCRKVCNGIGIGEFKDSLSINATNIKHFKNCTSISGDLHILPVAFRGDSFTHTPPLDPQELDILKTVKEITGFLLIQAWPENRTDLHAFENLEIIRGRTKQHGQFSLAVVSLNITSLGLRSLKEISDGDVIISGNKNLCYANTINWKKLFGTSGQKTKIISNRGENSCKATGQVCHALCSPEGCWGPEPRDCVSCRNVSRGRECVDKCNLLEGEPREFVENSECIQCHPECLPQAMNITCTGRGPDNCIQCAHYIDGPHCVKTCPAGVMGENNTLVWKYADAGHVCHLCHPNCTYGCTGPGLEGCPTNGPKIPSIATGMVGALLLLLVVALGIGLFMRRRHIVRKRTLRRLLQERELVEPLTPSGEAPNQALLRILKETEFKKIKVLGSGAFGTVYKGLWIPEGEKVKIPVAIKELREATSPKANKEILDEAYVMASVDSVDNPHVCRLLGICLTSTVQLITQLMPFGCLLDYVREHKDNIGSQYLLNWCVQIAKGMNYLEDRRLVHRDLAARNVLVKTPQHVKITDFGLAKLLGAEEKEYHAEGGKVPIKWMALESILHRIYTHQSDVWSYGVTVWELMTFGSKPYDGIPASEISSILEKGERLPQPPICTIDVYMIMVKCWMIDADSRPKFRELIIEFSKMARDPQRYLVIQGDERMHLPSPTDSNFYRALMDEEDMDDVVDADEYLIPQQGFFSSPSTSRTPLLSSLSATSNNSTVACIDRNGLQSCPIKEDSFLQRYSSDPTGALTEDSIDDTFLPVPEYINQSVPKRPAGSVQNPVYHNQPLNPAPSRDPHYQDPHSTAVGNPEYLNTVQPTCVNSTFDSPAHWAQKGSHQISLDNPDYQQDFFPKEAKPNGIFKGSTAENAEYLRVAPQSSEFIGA
EGFR (H773insNPH) expressing Ba/F3 stable cell line, sequence (P00533 with tags, fused parts or gaps DUP771-773): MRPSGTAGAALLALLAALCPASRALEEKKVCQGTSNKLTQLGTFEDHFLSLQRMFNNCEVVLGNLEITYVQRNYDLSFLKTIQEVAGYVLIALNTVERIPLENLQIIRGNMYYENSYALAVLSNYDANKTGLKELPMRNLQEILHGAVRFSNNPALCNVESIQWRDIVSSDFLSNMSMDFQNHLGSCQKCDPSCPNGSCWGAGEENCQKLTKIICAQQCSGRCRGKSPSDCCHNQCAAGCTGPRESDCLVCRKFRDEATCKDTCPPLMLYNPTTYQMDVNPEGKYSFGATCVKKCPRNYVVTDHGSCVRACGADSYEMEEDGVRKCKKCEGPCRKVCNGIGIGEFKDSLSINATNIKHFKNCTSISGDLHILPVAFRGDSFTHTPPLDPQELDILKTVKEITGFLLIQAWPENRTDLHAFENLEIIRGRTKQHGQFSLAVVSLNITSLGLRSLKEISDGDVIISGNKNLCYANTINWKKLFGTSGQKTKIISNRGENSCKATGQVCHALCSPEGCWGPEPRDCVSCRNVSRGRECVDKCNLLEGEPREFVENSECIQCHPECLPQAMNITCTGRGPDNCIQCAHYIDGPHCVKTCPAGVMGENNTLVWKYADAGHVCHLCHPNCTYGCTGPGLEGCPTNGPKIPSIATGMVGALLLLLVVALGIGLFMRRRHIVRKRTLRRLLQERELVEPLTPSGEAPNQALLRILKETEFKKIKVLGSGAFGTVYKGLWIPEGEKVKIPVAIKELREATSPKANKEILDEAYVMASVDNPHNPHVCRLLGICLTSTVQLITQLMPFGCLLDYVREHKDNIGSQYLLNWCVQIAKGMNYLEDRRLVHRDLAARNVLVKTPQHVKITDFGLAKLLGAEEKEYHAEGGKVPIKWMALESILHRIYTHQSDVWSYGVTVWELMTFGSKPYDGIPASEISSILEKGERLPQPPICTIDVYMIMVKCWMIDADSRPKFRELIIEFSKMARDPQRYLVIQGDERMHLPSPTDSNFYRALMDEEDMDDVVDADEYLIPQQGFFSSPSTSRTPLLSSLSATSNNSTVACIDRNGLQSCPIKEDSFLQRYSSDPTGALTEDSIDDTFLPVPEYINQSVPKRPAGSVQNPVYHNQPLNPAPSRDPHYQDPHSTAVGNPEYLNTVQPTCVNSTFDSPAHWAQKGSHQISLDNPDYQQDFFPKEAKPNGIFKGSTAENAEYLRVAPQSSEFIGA

Row | Structure (SMILES) | GI50 [1] | IC50 [2] | GI50 [3] | GI50 [4] | GI50 [5]
1 | C=CC(=O)Nc1ccc(F)c(Nc2nc(Nc3cnn(C4COC4)c3)ncc2-c2ccc(F)c(Cl)c2)c1 [Compound 53, N-(3-((5-(3-chloro-4-fluorophenyl)-2-((1-(oxetan-3-yl)-1H-pyrazol-4-yl)amino)pyrimidin-4-yl)amino)-4-fluorophenyl)acrylamide] | 119 nM | 1220 nM | 211 nM | 104 nM | 153 nM
2 | C=CC(=O)Nc1cccc(Nc2nc(Nc3cnn(C)c3)ncc2-c2cc(F)cc(Cl)c2)c1 [Compound 66, N-(3-((5-(3-chloro-5-fluorophenyl)-2-((1-methyl-1H-pyrazol-4-yl)amino)pyrimidin-4-yl)amino)phenyl)acrylamide] | 26 nM | 55 nM | 47 nM | 15 nM | 14 nM
3 | C=CC(=O)Nc1ccc(F)c(Nc2nc(Nc3cnn(C)c3)ncc2-c2ccc(F)c(F)c2)c1 [Compound 5, N-(3-((5-(3,4-difluorophenyl)-2-((1-methyl-1H-pyrazol-4-yl)amino)pyrimidin-4-yl)amino)-4-fluorophenyl)acrylamide] | 39 nM | 200 nM | 208 nM | 30 nM | 79 nM
4 | C=CC(=O)Nc1ccc(F)c(Nc2nc(Nc3cnn(C)c3)ncc2-c2cc(C)cc(F)c2)c1 [Compound 64, N-(4-fluoro-3-((5-(3-fluoro-5-methylphenyl)-2-((1-methyl-1H-pyrazol-4-yl)amino)pyrimidin-4-yl)amino)phenyl)acrylamide] | 104 nM | 554 nM | 159 nM | 61 nM | 95 nM
5 | C=CC(=O)Nc1ccc(F)c(Nc2nc(Nc3cnn(C)c3)ncc2-c2cnc(Cl)c(Cl)c2)c1 [Compound 17, N-(3-((5-(5,6-dichloropyridin-3-yl)-2-((1-methyl-1H-pyrazol-4-yl)amino)pyrimidin-4-yl)amino)-4-fluorophenyl)acrylamide] | 32 nM | 75 nM | 42 nM | 35 nM | 96 nM
6 | C=CC(=O)Nc1ccc(F)c(Nc2nc(Nc3cnn(CCO)c3)ncc2-c2ccc(F)c(Cl)c2)c1 [Compound 62, N-(3-((5-(3-chloro-4-fluorophenyl)-2-((1-(2-hydroxyethyl)-1H-pyrazol-4-yl)amino)pyrimidin-4-yl)amino)-4-fluorophenyl)acrylamide] | 80 nM | 1000 nM | 103 nM | 75 nM | 91 nM
7 | C=CC(=O)Nc1ccc(F)c(Nc2nc(Nc3cnn(C4COC4)c3)ncc2-c2ccc(Cl)c(Cl)c2)c1 [Compound 56, N-(3-((5-(3,4-dichlorophenyl)-2-((1-(oxetan-3-yl)-1H-pyrazol-4-yl)amino)pyrimidin-4-yl)amino)-4-fluorophenyl)acrylamide] | 95 nM | 587 nM | 118 nM | 104 nM | 84 nM
8 | C=CC(=O)Nc1ccc(F)c(Nc2nc(Nc3cnn(C)c3)ncc2-c2ccc(CN(C)C)c(F)c2)c1 [Compound 60, N-(3-((5-(4-((dimethylamino)methyl)-3-fluorophenyl)-2-((1-methyl-1H-pyrazol-4-yl)amino)pyrimidin-4-yl)amino)-4-fluorophenyl)acrylamide] | 150 nM | 1180 nM | 952 nM | 170 nM | 462 nM
9 | C=CC(=O)Nc1ccc(F)c(Nc2nc(Nc3cnn(C)c3)ncc2-c2ccc(OC)c(Cl)c2)c1 [Compound 3, N-(3-((5-(3-chloro-4-methoxyphenyl)-2-((1-methyl-1H-pyrazol-4-yl)amino)pyrimidin-4-yl)amino)-4-fluorophenyl)acrylamide] | 91 nM | 2320 nM | 432 nM | 90 nM | 103 nM
